Assay results as given in article PMC9241695, “Selective Metal Chelation by a Thiosemicarbazone Derivative Interferes with Mitochondrial Respiration and Ribosome Biogenesis in Candida albicans” (Microbiology Spectrum, 2022).
Read-outs that look alike come from different tables or passages of the source.

How the values were obtained:
C. albicans SC5314 = assay: Rescue effect of exogenous metal ions on MIC of 19ak; assay type: cell-based; conditions: Candida albicans
Description: h (for C. albicans, C. krusei, C. tropicalis, C. parapsilosis) or 48 h (for C. neoformans, A. fumigatus). The MIC was determined based on visible growth inhibition compared with the control. All experiments were performed in duplicate. […]
Rescue effect of exogenous metal ions on fungal growth inhibition by 19ak.
Since the effects of thiosemicarbazone may be due to binding of intracellular metal ions, we investigated the impact of adding metal ions to the medium on the inhibitory effect of 19ak by performing antifungal susceptibility testing as described above in the presence of 50 μM, 100 μM, and 200 μM ZnSO4, FeSO4, and FeCl3. […]

C. albicans SC5314 cells [1] = assay: Intracellular free iron levels using FeRhoNox-1; assay type: cell-based, Candida albicans; conditions: 0.5 μg/mL, 6 h, compared with untreated cells
Description: FeRhoNox-1 is a commercially available fluorescent probe that specifically binds Fe^2+ and is used to measure intracellular Fe^2 + content. C. albicans SC5314 cells cultured overnight were diluted to roughly 1 × 10^6 cells/mL in RPMI 1640 medium and challenged with various doses of 19ak for 6 h. Next, the cells were fixed with 4% paraformaldehyde for 1 h. After washing three times with PBS, the cells were stained with 5 μM FeRhoNox-1 for 30 min and analyzed by flow cytometry (Becton, Dickinson, CA, USA). Mammalian cells culture is according to the method described in Cytotoxicity testing which was described in Supplemental material in detail. After 12 h of treatment with different concentrations of 19ak, the supernatant was discarded and washed three times with PBS. Cells were collected after staining with FeRhoNox-1 for 30 min in the dark, and the fluorescence intensity of stained cells was analyzed by flow cytometry.

C. albicans SC5314 cells [2] = assay: Intracellular ATP production; assay type: cell-based, Candida albicans; conditions: 0.125 μg/mL, compared with control cells
Description: albicans SC5314 cells (1 × 10^6 cells/mL) were challenged with various doses of 19ak and incubated at 30°C for 6 h, followed by staining with 20 μM Rh123 for 30 min in the dark and detection by flow cytometry (Becton Dickinson, CA, USA).
Measurement of intracellular ATP production. To explore whether 19ak affects intracellular ATP content by damaging mitochondria, we treated C. albicans SC5314 cells (1 × 10^6 cells/mL) with different doses of 19ak. After lysing the cells in lysis buffer, ATP levels were measured with the ATP Assay Kit (Beyotime, Haimen, China) according to the manufacturer's instructions. Cellular protein concentrations were determined using a BCA Protein Assay Kit (Beyotime, Haimen, China). The intracellular ATP content was calculated by referring to a standard curve and normalized using the protein content of each sample for expression as nmol/mg […]
ROS production assay. […] The fluorescence intensity was then measured by flow cytometry, and the data were analyzed with Win MDI 2.9 software.
Influence of oxidant or antioxidant molecules on 19ak activity. […] The effects of NAC, Tu and DTT on the growth of 19ak treated fungal cells were measured using a time-growth curve. […] A microplate reader was used to measure the absorbance at600 nm, and the growth curves were plotted.

C. albicans SC5314 cells [3] = assay: ROS production assay (DCFH-DA); assay type: cell-based, Candida albicans; conditions: 6 h, compared with the control
Description: ROS production assay. Logarithmic-phase C. albicans SC5314 cells (1 × 10^6 cells/mL in RPMI1640 medium) were incubated in the presence or absence of 19ak for 6 h, followed by incubation with 2′,7′-dichlorofluorescein diacetate (DCFH-DA) in the dark for 30 min. The fluorescence intensity was then measured by flow cytometry, and the data were analyzed with Win MDI 2.9 software. […]

[4] = system: C. albicans CAF2-1, zap1Δ/Δ, zap1Δ/Δ+ pZAP1; assay: Growth of zap1 mutant, complemented and wild-type strains under 19ak; assay type: cell-based, Candida albicans
Description: FIG 6 Effect of 19ak on ribosome biogenesis in C. albicans. (A to C) The wild strain CAF2-1, the mutant strain zap1Δ/Δ and its complemented strain zap1Δ/Δ+ pZAP1 were adjusted to 1 × 10^5 cells/mL in RPMI 1640 medium and treated with 0.25 or 0.5 μg/mL 19ak for 15 h at 30°C. Cell growth was monitored by detecting the optical density at 600 nm in a microplate reader. (A) Cells that were not treated with 19ak as a control. (B) Cells treated with 0.25 μg/mL 19ak. (C) Cells treated with 0.5 μg/mL 19ak. Each point represents the mean of three replicates. The OD600 values at the final detection point were used to analyze significant differences. (D) C. albicans zap1Δ/Δ and its complemented strain zap1Δ/Δ + pZAP1 were treated with 0.5 μg/mL 19ak for 6 h at 30°C. The transcription levels of several genes associated with ribosomal biosynthesis were determined by qPCR. The bars represent means ± SD from three independent experiments. *, P < 0.05; **, P < 0.01; ***, P < 0.001. ns, nonsignificance. (E) qPCR analysis of the expression of genes associated with iron and zinc homeostasis after TPEN treatment. C. albicans SC5314 was cultured in RPMI 1640 medium and treated with 0.05 μg/mL or 0.2 μg/mL TPEN for 6 h at 30°C for qPCR analysis.

Q: What does the source list for `C/C(=N\NC(=S)N(C)C)c1ccccn1` [Compound 19ak]?
A: MIC (C. albicans SC5314; SC5314, + 50 μM Fe^2+ (FeSO4), read-out: MIC against C. albicans SC5314): 1 µg/mL; MIC (C. albicans SC5314; SC5314, + 50 μM Fe^3+ (FeCl3), read-out: MIC against C. albicans SC5314): 0.25 µg/mL; MIC (C. albicans SC5314; SC5314, + 50 μM Zn^2+ (ZnSO4), read-out: MIC against C. albicans SC5314): 4 µg/mL; MIC (C. albicans SC5314; SC5314, + 100 μM Fe^2+ (FeSO4), read-out: MIC against C. albicans SC5314): 1 µg/mL; MIC (C. albicans SC5314; SC5314, + 100 μM Fe^3+ (FeCl3), read-out: MIC against C. albicans SC5314): 0.25 µg/mL; MIC (C. albicans SC5314; SC5314, + 100 μM Zn^2+ (ZnSO4), read-out: MIC against C. albicans SC5314): 4 µg/mL; MIC (C. albicans SC5314; SC5314, + 200 μM Fe^2+ (FeSO4), read-out: MIC against C. albicans SC5314): 1 µg/mL; MIC (C. albicans SC5314; SC5314, + 200 μM Fe^3+ (FeCl3), read-out: MIC against C. albicans SC5314): 0.5 µg/mL; MIC (C. albicans SC5314; SC5314, + 200 μM Zn^2+ (ZnSO4), read-out: MIC against C. albicans SC5314): 4 µg/mL; MIC (C. albicans SC5314; SC5314, read-out: MIC against C. albicans SC5314): 0.125 µg/mL; Intracellular labile ferrous ions (FeRhoNox-1) (C. albicans SC5314 cells [1]): obvious drop; Decrease of intracellular ATP levels (C. albicans SC5314 cells [2]): approximately 65.8%; ROS formation (DCFH-DA) (C. albicans SC5314 cells [3]): decreased ROS; Activity against CAF2-1, zap1Δ/Δ and complemented strain with exogenous Zn^2+ ([4]; 100 μM Zn^2+ added): lost the activities; Growth of zap1 mutant versus complemented strain ([4]; 0.25 or 0.5 μg/mL, 15 h, 30°C): more severe growth defects
